Data taken from publication PMC10539439 (Pharmacological Reports, 2023).
“And” between values parts separate entries of the source, which are not always exact repeats. Identical values can stand only once. Like-named read-outs stand apart in the source and are kept apart here.

Columns and labels:
[1] = target: α1-adrenoceptor; assay: Competitive radioligand-binding assay, [3H]prazosin; design: species or system rat
Experimental: (§1) 10 mM stock solutions of test compounds were prepared in DMSO. Serial dilutions of compounds were prepared in 96-well microplate in assay buffers using an automated pipetting system epMotion 5070 (Eppendorf, Poland). Each compound was tested in 6 concentrations of 1.0E-05 to 1.0E-10 M (final concentration).
(§2) Affinity towards α1- and α2-adrenoceptors was evaluated using the competitive radioligand-binding assay. Experiments were conducted in the rat cerebral cortex. Radioligand [3H]prazosin (84,2 Ci/mmol, α1-adrenoceptor, PerkinElmer, Poland, NET823001MC) and [3H]clonidine (70.5 Ci/mmol, α2-adrenoceptor, PerkinElmer, Poland, NET613250UC) were used. The membrane preparation and the assay procedure were carried out accordingly as previously published. Radioactivity was counted on the MicroBeta2 scintillation counter (PerkinElmer, Poland). Data were fitted to a one-site curve-fitting equation with Prism 8 (GraphPad Software, USA), and Ki values were estimated from the Cheng–Prusoff equation.

[2] = target: T1, α2-adrenoceptor (Rattus norvegicus, UniProt P22909); assay: Competitive radioligand-binding assay, [3H]clonidine; details: for CPM: ADRA2, experiments 1-3, duplicates; for Affinity towards α2-adrenoceptors: summary table
T1 sequence (P22909 1-465): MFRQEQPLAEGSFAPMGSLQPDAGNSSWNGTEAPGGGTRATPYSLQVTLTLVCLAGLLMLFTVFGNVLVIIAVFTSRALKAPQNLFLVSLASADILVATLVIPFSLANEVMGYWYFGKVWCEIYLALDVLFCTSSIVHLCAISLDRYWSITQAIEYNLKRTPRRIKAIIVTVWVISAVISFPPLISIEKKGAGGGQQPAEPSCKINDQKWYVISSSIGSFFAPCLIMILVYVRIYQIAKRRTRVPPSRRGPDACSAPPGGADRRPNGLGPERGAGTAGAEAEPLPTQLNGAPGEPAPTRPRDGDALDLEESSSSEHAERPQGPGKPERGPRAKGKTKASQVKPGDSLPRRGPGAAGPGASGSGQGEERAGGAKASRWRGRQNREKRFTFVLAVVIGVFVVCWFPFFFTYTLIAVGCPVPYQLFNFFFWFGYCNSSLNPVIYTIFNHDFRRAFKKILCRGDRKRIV
Experimental: as §1, §2

[3] = target: T2, α2A-adrenoceptor (Homo sapiens, UniProt P08913); assay: Intrinsic activity, Tango beta-lactamase reporter assay; format: cell-based
T2 sequence (P08913 1-465): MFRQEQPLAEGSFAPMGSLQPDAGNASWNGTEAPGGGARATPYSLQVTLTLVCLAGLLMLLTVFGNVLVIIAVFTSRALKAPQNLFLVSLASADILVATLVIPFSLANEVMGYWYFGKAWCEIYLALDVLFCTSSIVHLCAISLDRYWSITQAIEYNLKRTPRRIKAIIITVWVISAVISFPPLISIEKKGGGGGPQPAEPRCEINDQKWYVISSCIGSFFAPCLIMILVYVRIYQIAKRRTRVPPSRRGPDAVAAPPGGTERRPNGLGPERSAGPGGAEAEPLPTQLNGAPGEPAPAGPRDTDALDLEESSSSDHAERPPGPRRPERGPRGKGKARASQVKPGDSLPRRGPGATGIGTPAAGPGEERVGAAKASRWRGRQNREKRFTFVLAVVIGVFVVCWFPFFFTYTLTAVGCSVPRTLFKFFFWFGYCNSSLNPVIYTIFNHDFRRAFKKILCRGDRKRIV
Experimental: The intrinsic activity at α2A-adrenoceptor was assessed by the Tango assay technology that uses a mammalian-optimized beta-lactamase (bla) reporter gene combined with an FRET-enabled substrate to provide reliable and sensitive detection in cells. Cells are loaded with an engineered fluorescent substrate containing two fluorophores, coumarin, and fluorescein. In the absence of bla expression, the substrate molecule remains intact. In this state, excitation of the coumarin results in a transfer of fluorescence resonance energy to the fluorescein moiety and emission of green fluorescent light. However, in the presence of bla expression, the substrate is cleaved, separating the fluorophores and disrupting energy transfer. Excitation of the coumarin in the presence of bla enzyme activity results in a blue fluorescence signal.
Intrinsic activity assay was performed according to the manufacturer of the assay kit (Invitrogen, Life Technologies). Cells were harvested and resuspended in an assay medium at a density of 312,500 cells/ml. 32 μL per well of cell suspension was added to the test compound wells, the unstimulated control wells, and the stimulated control wells, and incubated for 16–24 h. To perform an agonist assay, 8 μL of 5 × of agonist in the assay medium was added to the cells. […] Then, the agonist and antagonist plates were incubated in a humidified incubator at 37 °C/5% CO2 for 5 h. After the incubation, 8 μL of LiveBLAzer™-FRET B/G substrate mixture (CCF4-AM) was loaded into cells in the absence of direct strong lighting, covered, and incubated at room temperature for 2 h.

[4] = [3H] prazosin, rat cerebral cortex, mean ± SEM, n = 3, read-out: Ki
[5] = ADRAA2A, agonist, concentration 1e-8
[6] = ADRAA2A, agonist, concentration 1e-7
[7] = ADRAA2A, agonist, concentration 1e-6

For `Cl.N=C(N)NN=Cc1c(Cl)cc(O)cc1Cl` [4-OH-Guanabenz, 2-[(2,6-Dichloro-4-hydroxyphenyl)methylene]hydrazinecarboximidamide Hydrochloride], the Ki [1, 4] was 3860 ± 1010 nM, the “affinity toward α2-adrenoreceptor (in words)” value [2] was “high affinity” and the CPM ([2]; log of molar concentration -5) was 78 CPM and 116 CPM and 96 CPM and 117 CPM and 113 CPM and 111 CPM. For the same molecule, the CPM ([2]; log of molar concentration -6) was 132 CPM and 157 CPM and 112 CPM and 131 CPM and 141 CPM, the CPM ([2]; log of molar concentration -7) was 198 CPM and 156 CPM and 131 CPM and 190 CPM and 205 CPM and the CPM ([2]; log of molar concentration -8) was 314 CPM and 316 CPM and 394 CPM and 302 CPM and 300 CPM. For the same molecule, the CPM ([2]; log of molar concentration -9) was 420 CPM and 340 CPM and 383 CPM and 296 CPM and 320 CPM and 437 CPM, the CPM ([2]; log of molar concentration -10) was 404 CPM and 380 CPM and 358 CPM and 403 CPM and 400 CPM and 370 CPM and the “Affinity towards α2-adrenoceptors” value [2] was “+”. The “Intrinsic activity at α2A-adrenoceptors (in words)” value [3] was “Partial agonist”, the “% of max response” value [3, 5] was -0.7437% and -0.7189% and -0.7313% and -0.7282% and the “% of max response” value [3, 6] was 2.887% and 2.799% and 3.482%. For the same molecule, the “% of max response” value [3, 7] was 33.4463% and 31.1405% and 34.9698%, the “% of max response” value ([3]; ADRAA2A, agonist, concentration 1e-5) was 37.4215% and 35.9932% and 36.5487% and the EC50 ([3]; agonist assay) was 316 nM. For the same molecule, the “activity relative to full agonist brimonidine” value ([3]; agonist assay, maximal activity reached) was 30%, the Emax ([3]; read-out: % of max response, ADRAA2A, agonist, concentration 1e-7) was 2.71% and the Emax ([3]; read-out: % of max response, ADRAA2A, agonist, concentration 1e-6) was 28.8%. It also gave an Emax ([3]; read-out: % of max response, ADRAA2A, agonist, concentration 1e-5) of 34.6%.

`N=C(N)N/N=C/c1c(Cl)cccc1Cl` [Guanabenz] was tested, and the Ki ([1]; ADRA1, experiment 1, 2, 3, read-out: Ki, single experiments) was 259 nM and 250 nM and 251 nM, the Ki [1, 4] was 253 nM and the “Affinity towards α1-adrenoceptors” value ([1]; summary table) was “+”. The CPM ([2]; log of molar concentration -6) was 89 CPM and 117 CPM and 99 CPM and 116 CPM and 125 CPM and 115 CPM, the CPM ([2]; log of molar concentration -7) was 120 CPM and 135 CPM and 148 CPM and 196 CPM and 133 CPM and the CPM ([2]; log of molar concentration -8) was 152 CPM and 165 CPM and 205 CPM and 265 CPM and 170 CPM. The CPM ([2]; log of molar concentration -10) was 320 CPM and 325 CPM and 437 CPM and 458 CPM and 265 CPM and 270 CPM, the “Affinity towards α2-adrenoceptors” value [2] was “+” and the “Intrinsic activity at α2A-adrenoceptors (in words)” value [3] was “Full agonist”. The “% of max response” value ([3]; ADRAA2A, agonist, concentration 1e-11) was -0.6454% and -0.8183% and -1.252% and -0.7319%, the “% of max response” value ([3]; ADRAA2A, agonist, concentration 1e-10) was -1.12% and -1.114% and -1.036% and -1.117% and the “% of max response” value ([3]; ADRAA2A, agonist, concentration 1e-9) was 0.5496% and 0.2076% and -0.728% and 0.3786%. For the same molecule, the “% of max response” value [3, 5] was 28.3106% and 18.1657% and 31.6251%, the Emax ([3]; ADRAA2A, agonist, concentration 1e-8, read-out: % of max response) was 34.9% and the “% of max response” value [3, 6] was 69.7622% and 66.4917% and 70.9692%. For the same molecule, the Emax ([3]; ADRAA2A, agonist, concentration 1e-7, read-out: % of max response) was 72.2%, the “% of max response” value [3, 7] was 80.6636% and 82.7247% and 76.4282% and the Emax ([3]; ADRAA2A, agonist, concentration 1e-6, read-out: % of max response) was 72.2%.
